Columns and labels:
POW virus = test system: POW virus; parameters: species or system NIH Swiss mice; conditions: mouse, in vivo
[1] = iv via tail vein, five consecutive days, 16.7 μg/day, 10-day observation
WN-E-D3 = WN-E-D3 (West Nile virus, UniProt Q9Q6P4); format: binding

Sequence	chance for survival (POW virus)	onset of disease / illness (POW virus)	toxicity to mice [1]	selected by binding (phage display) (WN-E-D3)
RCCHPQCKEGKKCR (SEQ ID NO:157) [MP-100]	increases their chance for survival	delay in onset of disease	neither of the agents is toxic	–
RCCREPCKEGRKCR [MP-106]	–	–	–	selected by binding to WN-E-D3
RCCTLRCKEGKKCR [MP-108]	–	–	–	selected by binding to WN-E-D3
RCCVSVCKEGKKCR [MP-107]	–	–	–	selected by binding to WN-E-D3
